The record followed here is PubChem BioAssay (NCI).

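Protocol summary: plate cells (96-well), add compound at 5 concentrations, incubate 48 h, interpolate endpoints linearly. Definition used: TGI = concentration required for complete inhibition of growth.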

Some test systems named below: HCT-116 colon; OVCAR-5 ovarian; TK-10 renal; ACHN renal; UACC-257 melanoma; SNB-19 CNS; HCT-15 colon; OVCAR-8 ovarian; CCRF-CEM leukemia; SK-MEL-5 melanoma; SK-MEL-28 melanoma; COLO 205 colon; SW-620 colon; SK-OV-3 ovarian; SF-268 CNS; OVCAR-4 ovarian; K-562 leukemia; EKVX NSCLC; SF-295 CNS; KM12 colon.
Common to all, as to experiment: DTP human tumour cell line panel, 48 h

Regarding `CC(=O)Nc1ccc(Sc2nnc(NC(C)=O)s2)cc1`, the TGI in the assay with HCT-116 colon, in the assay with OVCAR-5 ovarian, in the assay with TK-10 renal, with ACHN renal, in the assay on UACC-257 melanoma and in the assay with SNB-19 CNS was above 100 µM throughout. Also, the TGI in the assay with HCT-15 colon, in the assay on OVCAR-8 ovarian, in the assay with CCRF-CEM leukemia, in the assay with SK-MEL-5 melanoma, with SK-MEL-28 melanoma and in the assay on COLO 205 colon was above 100 µM throughout. Moreover, the TGI in the assay with SW-620 colon, with SK-OV-3 ovarian, in the assay on SF-268 CNS, with OVCAR-4 ovarian, with K-562 leukemia and with EKVX NSCLC was above 100 µM throughout. Besides, the TGI with SF-295 CNS and in the assay with KM12 colon was above 100 µM in each case.
Consider `CCN1CCC(O)(c2ccc(O)cc2)C(C(=O)c2ccc(O)cc2)C1` (stereo not given), for which the TGI is 54.9 µM in the assay on HCT-116 colon; 35.6 µM in the assay on OVCAR-5 ovarian; 31.5 µM with TK-10 renal; 34 µM with ACHN renal; 32.4 µM in the assay with UACC-257 melanoma; above 100 µM with SNB-19 CNS. The TGI is 32.1 µM with HCT-15 colon; above 100 µM with OVCAR-8 ovarian; 30 µM in the assay on CCRF-CEM leukemia; 22.7 µM in the assay on SK-MEL-5 melanoma; 31.7 µM in the assay on SK-MEL-28 melanoma; 37.9 µM in the assay with COLO 205 colon. Moreover, the TGI with SW-620 colon is 12.3 µM; in the assay on SK-OV-3 ovarian it was above 100 µM; in the assay on SF-268 CNS, above 100 µM; in the assay on OVCAR-4 ovarian it was 68.8 µM; in the assay with K-562 leukemia, 33.8 µM; with EKVX NSCLC, 51.1 µM. In addition, the TGI in the assay on SF-295 CNS was above 100 µM; with KM12 colon, 45.4 µM.
In the case of `Cc1ccc(-c2cc(-c3ccco3)c(C#N)c(=O)n2C2OC(CO)C(O)C(O)C2O)cc1` (stereo not given), the TGI in the assay with HCT-116 colon, with OVCAR-5 ovarian, in the assay with TK-10 renal, with ACHN renal, in the assay on UACC-257 melanoma and in the assay with SNB-19 CNS was above 100 µM in each case. The TGI is above 100 µM in the assay on HCT-15 colon; above 100 µM in the assay with OVCAR-8 ovarian; above 100 µM in the assay with CCRF-CEM leukemia; 45.7 µM with SK-MEL-5 melanoma; above 100 µM with SK-MEL-28 melanoma; above 100 µM in the assay on COLO 205 colon. The TGI was above 100 µM in the assay on SW-620 colon; 59.8 µM in the assay on SK-OV-3 ovarian; above 100 µM in the assay on SF-268 CNS; above 100 µM in the assay with OVCAR-4 ovarian; above 100 µM in the assay with K-562 leukemia; above 100 µM with EKVX NSCLC. Also, the TGI in the assay with SF-295 CNS and with KM12 colon was above 100 µM throughout.
For `Cn1c(=O)c(Cl)c(N=[N+]=[N-])c2ccccc21`, the TGI in the assay with HCT-116 colon, in the assay with OVCAR-5 ovarian, in the assay with TK-10 renal, with ACHN renal, in the assay with UACC-257 melanoma and in the assay with SNB-19 CNS was above 100 µM in each case. In addition, the TGI in the assay with HCT-15 colon, with OVCAR-8 ovarian, in the assay with CCRF-CEM leukemia, in the assay on SK-MEL-5 melanoma, in the assay with SK-MEL-28 melanoma and with COLO 205 colon was above 100 µM throughout. Moreover, the concentration for total growth inhibition (TGI) in the assay on SW-620 colon, in the assay with SK-OV-3 ovarian, with SF-268 CNS, with OVCAR-4 ovarian, in the assay on K-562 leukemia and in the assay with EKVX NSCLC was above 100 µM throughout. In addition, the TGI in the assay on SF-295 CNS and with KM12 colon was above 100 µM throughout.
As for `CCOC(=O)C(=O)NC12CC3CC(CC(C3)C1)C2`, the total growth inhibition concentration (TGI) in the assay with HCT-116 colon, with OVCAR-5 ovarian, in the assay with TK-10 renal, with ACHN renal, with UACC-257 melanoma and with SNB-19 CNS was above 100 µM each time. For the same compound, the TGI in the assay with HCT-15 colon, in the assay with OVCAR-8 ovarian, with CCRF-CEM leukemia, in the assay with SK-MEL-5 melanoma, with SK-MEL-28 melanoma and with COLO 205 colon was above 100 µM each time. The TGI in the assay with SW-620 colon, in the assay with SK-OV-3 ovarian, in the assay on SF-268 CNS, in the assay on OVCAR-4 ovarian, with K-562 leukemia and with EKVX NSCLC was above 100 µM throughout. For the same compound, the TGI with SF-295 CNS and in the assay on KM12 colon was above 100 µM in each case.
As for `O=[N+]([O-])C(=C/c1cccs1)/C(=C\c1cccs1)[N+](=O)[O-]`, the TGI in the assay with HCT-116 colon worked out at 2.49 µM; with OVCAR-5 ovarian, 7.21 µM; with TK-10 renal, 7.76 µM; with ACHN renal, 2.68 µM; with UACC-257 melanoma, 3.46 µM; in the assay on SNB-19 CNS it was 5.16 µM. The total growth inhibition concentration (TGI) was found to be 0.614 µM in the assay with HCT-15 colon; 8.06 µM with OVCAR-8 ovarian; 0.276 µM in the assay on CCRF-CEM leukemia; 2.94 µM in the assay with SK-MEL-5 melanoma; 2.32 µM in the assay with SK-MEL-28 melanoma; 2.93 µM with COLO 205 colon. Also, the TGI with SW-620 colon is 21.2 µM; in the assay on SK-OV-3 ovarian it was 8.04 µM; in the assay with SF-268 CNS, 10.4 µM; in the assay with OVCAR-4 ovarian it was 7.41 µM; in the assay with K-562 leukemia it was above 100 µM; with EKVX NSCLC, above 32.4 µM. Moreover, the TGI in the assay on SF-295 CNS is 4.92 µM; in the assay on KM12 colon it was 13.4 µM.

In general, TGI refers to the concentration at which net growth stops.
